Entries after “also recorded” stand apart in the source; their conditions may differ. Like-named read-outs stand apart in the source and are kept apart here. No end group written: not given here.
Experiments:
glymphatic system [1] = assay: Brain clearance of 125I-Aβ40 and 14C-inulin after injection into the frontal cortex, pharmacological intervention; type: in vivo, mice
Experimental: The role of RAS on clearance of exogenous ^125I-Aβ and ^14C-inulin were determined at 30 minutes after their injection into the frontal cortex (Xie et al., 2013).
Briefly, a stainless steel guide cannula was implanted stereotaxically into the right caudate-putamen or frontal cortex of anesthetized mice (ketamine (100 mg/kg) and xylazine (10 mg/kg). For the frontal cortex, the coordinate of the cannula tip was 0.7 mm anterior and 3.0 mm lateral to the bregma, and 1.3 mm below the surface of the brain. Animals were allowed to recover after surgery. The experiments were performed before substantial chronic process occurred, but allowing time for the BBB repair to large molecules, as reported (Deane et al., 2004). Drugs were pre-injected for 10 minutes before injection of the radio-labeled molecules.
Injection of the mixture of tracers: Mock CSF (0.5 μL) containing ^125I-labeled Aβ40 (10 nM monomer) together with ^14C-inulin (0.05 μCi, an inert molecule for bulk flow) was microinfused into brain ISF over 5 minutes.
At the end of the experiments brain was removed and prepared for radioactivity analysis and TCA analyses.
^125I-radioactivities were determined in a gamma counter (Wallac Vizard Gamma Counter, Perkin Elmer). For ^14C-counting, the samples were solubilized in 0.5 ml tissue solubilizer (Perkin Elmer) overnight, followed by addition of 5 ml of scintillation cocktail (Packard Ultima Gold) and analyzed in a liquid scintillation counter (Beckman Coulter Counter).
All calculations of clearance parameters were carried out as described above or by routine methods (Deane et al., 2004; Xie et al., 2013). Briefly, the percentage of radioactivity remaining in the brain after microinjection was determined as % recovery in brain=100×(Nb/Ni), where Nb is the radioactivity remaining in the brain at the end of the experiment and Ni is the radioactivity injected into the brain ISF, i.e., the d.p.m. for ^14C-inulin and the c.p.m. for the TCA-precipitable ^125I-radioactivity. Inulin was used as a metabolically inert polar molecule which is neither transported across the BBB nor retained by the brain; its clearance rate provides a measure of the ISF convective bulk flow. For each group there were 3-6 mice, and data expressed as mean±SEM. P<0.5 was taken as statistically significant as determined using T-test.

glymphatic system [2] = assay: Brain influx of 125I-Aβ40 and 14C-inulin after injection into the cisterna magna, pharmacological intervention; type: in vivo, mice
Experimental: The role of RAS on the influx of these molecules into brain was determined by injecting these molecules into the subarachnoid space (cisterna magna) and determining brain levels after 30 minutes.
A small volume (5 μL) of mock CSF containing ^125I-Aβ40 (10 nM) and ^14C-inulin (0.05 μCi) was microinjected into the cistern magna at 1 μL/min. At the end of the experiment (30 minutes) the brain was removed and analyzed for radioactivity.

[3] = Dynamic contrast-enhanced MRI after intrathecal infusion of paramagnetic contrast: regional tissue uptake (TACs, mAUC)
Experimental: Female Sprague Dawley rats were used (Taconics, body weight: 220-280 g). For anesthesia, the animals were induced with 3% isofluorane in oxygen using an induction chamber and then received an intra-peritoneal injection of 40 mg/kg […] (Nembutal® Sodium solution, OVATION, Pharmaceuticals, Inc., Deerfield, Ill., USA). The animals were allowed to breathe spontaneously during the entire experiment. Non-invasive monitors (pulse-oximetry, respiratory rate and rectal temperature probe, SA Instruments, Inc., Stony Brook, N.Y.) were placed to assure adequate oxygenation (O2-saturation>97%), ventilation (respiratory rate 50-65 breath per minute) and normal body temperature (36.5° C.-37.5° C.) during the surgical procedures. A 24-gauge catheter was inserted into the tail vein for administration of fluids and supplemental anesthesia. The animal was positioned in a stereotaxic frame (Kopf Instruments, frame #9) and the head flexed to 50 degrees. For the brief surgical procedure, anesthesia was supplemented with isoflurane (0.8-1.2%) delivered in an 1:1 O2:Air mixture.
The atlanto-occipital membrane was exposed via a midline dorsal neck incision and a small incision was made to expose the underlying dura mater. A polyethylene catheter (6-cm long, 0.28 mm ID×0.61 mm OD, (Solomon Scientific, Plymouth Meeting, Pa.)) filled with normal saline was advanced 1-mm into the intrathecal space via a small durotomy made using a 23-gauge needle and was fixed and sealed with super glue. The skin incision was closed around the catheter.
Following surgery, the rats were flipped supine and positioned in a custom-made acrylic cradle fitted with a head fixation device and a snout mask for delivery of supplemental oxygen. The head of the animal was positioned on top of a 3.0 cm custom-made radio-frequency (rf) receiver coil. Non-invasive, MRI compatible monitors (pulse-oximetry, respiratory rate and rectal temperature probe, SA Instruments, Inc., Stony Brook, N.Y.) were repositioned for continuous monitoring of vital signs while the animal underwent MRI imaging. During imaging, body temperature was kept strictly within 36.5-37.5° C. during imaging using a computer assisted air heating system (SA Instruments, Inc., Stony Brook, N.Y.). The intrathecal catheter was connected to a long PE 20 line filled with paramagnetic MR contrast diluted in 0.9% NaCl attached to a 1 cc-syringe and microinfusion pump (Baxter Model AS50 infusion Pump, Baxter Healthcare Corporation, Illinois, USA). The tail vein catheter was used for maintenance hydration (0.9% NaCl, 4 cc/kg/hr) and supplemental anesthesia (Nembutal®, 5-10 mg/kg IV) administered every 2 hrs as guided by the respiratory rate.
All imaging protocols were performed on a 9.4T/20 MRI instrument interfaced to a Bruker Advance console and controlled by Paravision 5.0 software (Bruker Bio Spin, Billerica, Mass.). A custom-made 3-cm surface radio-frequency coil was used as a receiver and a 16-cm diameter volume coil (Bruker) was used as a transmitter. […] For all experiments a 60 mM (1:8 volume ratio diluted in 0.9% NaCl) Gd-DTPA phantom placed in the vicinity of animal's head was used for image intensity normalization over the time series. […] A total of 80 μl of the paramagnetic contrast agent was delivered intrathecally at an infusion rate of 1.6 μl/min (total infusion time: 50 min). After completion of the intrathecal infusion, the 3D MRI acquisitions continued over 3.9 hrs. At the end of the experiment the animal was euthanized with an overdose of Nembutal.
The general MRI image processing procedure consisted of head motion correction, intensity normalization, smoothing and voxel-by-voxel conversion to % of baseline signal. SPM8 (World Wide Web at fil.ion.ucl.ac.uk/spm) was used for this. First, the acquired T1-weighted MRI images were exported as DICOM files and converted to 3D Nlfti image format.

[4] = K-means cluster analysis of contrast-enhanced MRI, 4 mid-sagittal slices
Experimental: Non-parametric segmentation to group voxels in the MRI images on the basis of similar kinetics was performed using a k-means cluster algorithm (PMOD Version 3.307, PMOD Technologies, Ltd, Zurich, Switzerland) on four sagittal slices at the level of the aqueduct from each of the 4D T1-weighted MRIs. A volume-of-interest mask containing the brain only was created for the cluster analysis. The number of clusters (K) used was determined by the K which was able to segment out voxels adjacent to the large vessels such as basilar artery (including pituitary recess) and olfactory artery complex. This was done on an interactive, per animal basis.
All data are presented as mean±SD.

[5] = Dynamic integrated MRI-PET imaging after intrathecal infusion; conditions: lumbar intrathecal infusion
Experimental: (§1) Sprague Dawley rats (2-3 month old females) were anesthetized with phenobarbital and lumbar intrathecal catheters placed. Imaging was performed using a custom-built, MRI-compatible PET scanner for the rat brain in combination with a 9.4T microMRI (ref). […] The PET ring (ID 38 mm and accommodating the head of a rat) consists of 12 detector blocks consisting of a 4×8 array of 2.22×2.22×5 mm^3 lutetium oxyorthosilicate (LSO) crystals assembled with a thin reflective foil and coupled to a matching non-magnetic S8550 APD array (ref). PET data are transferred via optical fibers to an external (PCI)-based data acquisition board (ref). For simultaneous PET/MRI imaging a custom-made volume RF coil which fits inside the PET ring was used. The 9.4T microMRI used in all experiments is a superconducting horizontal bore magnet (Bruker Biospin 94/20, 400 MHz, Magnex scientific) interfaced to a Bruker Advance console and controlled by Paravision 5.0 software (Bruker Bio Spin, Billerica, Mass.). The magnet is equipped with an actively shielded combined RT-shim and gradient system (B-GA 12S) that can produce a maximum gradient strength of 200 mT/m. […]

[6] = Intracisternal radio-tracer injection: accumulation in the brain parenchyma
Experimental: Anesthetized mice were fixed in a stereotaxic frame and a 30GA needle was inserted into the cisterna magna. For intracisternal injections, 10 μl of CSF tracer was injected at a rate of 2 μl/min over 5 minutes with a syringe pump (Harvard Apparatus).
After 15, 30 or 45 minutes, animals were rapidly decapitated, the skull opened, the dura removed and the brain harvested. The brain was solubilized in 2 ml Soluene (Sigma) at 45° C. overnight. 10 ml Hionic Fluor liquid scintillation cocktail (Perkin Elmer) was added and radioactivity was measured in a Multipurpose Scintillation Counter (Beckman Coulter). Brain radioactivity was normalized to total radioactivity detected in a 10 μl aliquot put directly into a scintillation vial immediately before intracisternal radio-tracer injection and expressed as the % of total injected radioactivity. ^3H-mannitol and ^3H-dextran accumulation in the brain was compared by 2-way ANOVA with Bonferroni's post-hoc test.

[7] = Intra-striate radio-tracer injection: interstitial solute clearance from the brain, wild type vs Aqp4-null
Experimental: To evaluate the pathways and rates of interstitial fluid and solute clearance from the brain, fluorescent and radio-labeled tracers were injected stereotactically into the brain parenchyma. Anesthetized animals were fixed in a stereotaxic frame and a 33GA needle was inserted via a small burr hole into the brain at the following coordinates: intra-cortical injections (0.22 mm caudal, 2.0 mm lateral, 1.75 mm ventral to bregma), intra-striate injections (0.22 mm caudal, 2.5 mm lateral, 3.5 mm ventral to bregma), intrathalamic injections (1.82 mm caudal, 1.25 mm lateral, 3.75 mm ventral to bregma). After needle insertion, 30 minutes was allowed to elapse to allow the needle track to swell closed. 1.0 μl of tracer (dissolved in artificial CSF) was injected at a rate of 17 nl/min.
15 min, 30 min, 1 h or 2h later, the animal was rapidly decapitated and the brain harvested. The brain was solubilized as above, and the radioactivity present in the brain was measured by liquid scintillation spectrometry. All radioactivity values were normalized to 1 μl injection standards taken immediately prior to each intra-parenchymal injection.

AQP4-M1 expression = AQP4-M1 expression by qPCR in cultured primary cortical astrocytes; type: cell-based, mouse; conditions: vs. control; siRNA transfected for six days
Excerpt: (A) The Aqp4 gene has two transcription initiation site, with transcription initiated at each site resulting in two AQP4 mRNA variants: AQP4-M1 which includes Exons 0-4 of the Aqp4 gene and AQP4-M23 which lacks Exon 0. (B) AQP4-M23 (the predominant form in the CNS under physiological conditions) permits perivascular AQP4 packing while AQP4-M1 prevents it; thus increasing AQP4-M1 expression impairs AQP4 polarization (Crane et el. J Biol Chem 2009; Furman et al. Proc Nat Acad Sci 2003). (C) The expression of AQP4-M1 was evaluated by real-time quantitative PCR (qPCR) in the mouse ipsilateral cortex 3 days after TBI using PCR primers specifically targeting Exon 0 of the AQP4-M1 transcript. Compared to AQP4-M1 expression in the control (sham) cortex, TBI increased AQP4-M1 expression by approximately two-fold (*P<0.05, t-test; n=5 per group). (D) Using an siRNA-based approach targeting Exon 0 of the AQP4-M1 variant, the expression of AQP4-M1 could be efficiently knocked down in cultured primary mouse cortical astrocytes. Three siRNA duplexes were designed to target Exon 0 of the AQP4-M1 transcript, and primary mouse astrocytes were transfected with these siRNA duplexes for six days. […] Thus, we tested whether inhibition of STAT3 signaling in primary mouse cortical astrocytes could reduce AQP4-M1 expression. […]

[8] = rat, in vivo
Experimental: as §1

[9] = agent 1 μM, 30 minutes, frontal cortex
[10] = ratio of average mAUC of region to average mAUC of pituitary recess, mean ± SD

## angiotensin (1-7): active angiotensin metabolite acting on the Mas receptor; opposes angiotensin II (DRVYIHP; Angiotensin 1-7; UniProt P01019 25-31, looked up)
Glymphatic system [1]; 1 nM and 10 nM, 15 minute time point
  clearance of Aβ at 15 minutes: increased; also recorded: greater change between concentrations 10 nM and 1 nM
Glymphatic system [1]; 1 μM, 0.1 μM and 0.01 μM, pre-injected into frontal cortex, 30 minutes
  clearance of Aβ with dose: increased progressively with dose

## CC(=N)NCCCC[C@H](N)C(=O)O [L-NIL]
Glymphatic system [1]; 1 mM
  clearance of Aβ: increased
  clearance of inulin: increased
Glymphatic system [2]; mouse, in vivo
  influx of Aβ with dose: dose dependent increase
  influx of inulin with dose: dose dependent increase

## angiotensin II: peptide of the renin-angiotensin system acting on AT1R and AT2R
Glymphatic system [1]; [9]
  brain clearance of Aβ: reduced
  brain clearance of inulin: reduced
  levels of Aβ40 remaining in brain (recovery): increase
  levels of inulin remaining in brain (recovery): increase
Glymphatic system [2]; agent 1 μM injected into the cistern magna, 30 minutes
  influx of Aβ40 into brain: decrease
Glymphatic system [2]; angiotensin II 1 μM, losartan route not given, 30 minutes
  influx of inulin into brain: decrease

## CNC[C@H](O)[C@@H](O)[C@H](O)[C@H](O)CO.CNC[C@H](O)[C@@H](O)[C@H](O)[C@H](O)CO.O=C([O-])CN(CCN(CC(=O)[O-])CC(=O)O)CCN(CC(=O)[O-])CC(=O)O.[Gd+3] [Gd-DTPA, 1-deoxy-1(methylamino)D-glucitol dihydrogen [N,N-bis[2-[bis(carboxymethyl)amino]ethyl]glycinato (5-)]gadolinite(2-)(2:1)]
[3]; not normalized, mean ± SD
  mAUC at the pituitary recess: 743±266 % signal change per time interval
[3]; post-injection
  time at which average uptake in the cerebellum peaked / reached apparent plateau: ~90 min
  time of peak of signal changes induced within the parenchyma: 60 to 80 min
[3]; [10]
  mAUC, Aqueduct: 0.34 ± 0.23
  mAUC, Cerebellum: 0.28 ± 0.11
  mAUC, Olfactory Bulb: 0.24 ± 0.11
  mAUC, Pontine Nucleus: 0.17 ± 0.09
[3]; ratio of average mAUC of region to average mAUC of pituitary recess, mean ± SD, intrathecal infusion
  mAUC, Pineal recess: 1.01 ± 0.35
[4]; most distally labeled voxels
  #Voxels - Zone 3, mean (SD): 18295 (7407)
[4]; para-vascular zone
  #Voxels - Zone 1, mean (SD): 4048 (2146)
[4]; rat, in vivo
  Zone 2#Voxels*AUC/Zone 1#Voxels*AUC, mean (SD): 1.62 (0.60)
  time-to-peak of the para-vascular red cluster: ~90 min
[4]; tissue adjacent to zone 1
  #Voxels - Zone 2, mean (SD): 15835 (5690)
[5]
  transport through the brain-wide glymphatic pathway: with some ‘restriction’

## atrial natriuretic peptide (ANP): a peptide that reduces body water and sodium (SLRRSSCFGGRMDRIGAQSGLGCNSFRY; ends and bridges not checked; cysteine pairing not given here; UniProt P01160 124-151, looked up)
Glymphatic system [1]; [9]
  brain clearance of Aβ: reduced
  brain clearance of inulin: reduced

## ^125I-amyloid β1-40: radio-labeled amyloid β1-40 peptide tracer
[6]; mouse, in vivo
  accumulation in the brain after intracisternal injection, in words: increased in a manner comparable to [^3H]dextran-10
[7]; mouse, in vivo
  rate of clearance from the brain in wild-type mice, in words: exceeded that of either [^3H]mannitol or [^3H]dextran-10
  reduction of clearance from the brain interstitium in Aqp4-null mice compared to wild type: ~55%

## O=[N+]([O-])c1ccc2c(c1)S(=O)(=O)C=C2 [STATTIC]
AQP4-M1 expression
  AQP4-M1 expression: significantly reduced

## 2-deoxy-2-(^18F)fluoro-D-glucose [^18FDG]
[8]
  transport through the brain-wide glymphatic pathway: moves rapidly through the brain-wide glymphatic pathway

## NC(=O)CC[C@@H]1NC(=O)[C@H](Cc2ccccc2)NC(=O)[C@H](Cc2ccc(O)cc2)NC(=O)[C@@H](N)CSSC[C@@H](C(=O)N2CCC[C@H]2C(=O)N[C@@H](CCCN=C(N)N)C(=O)NCC(N)=O)NC(=O)[C@H](CC(N)=O)NC1=O [vasopressin]
Glymphatic system [1]; [9]
  brain clearance of Aβ: reduced
  brain clearance of inulin: reduced

## OC[C@@H](O)[C@@H](O)[C@H](O)[C@H](O)CO [[^3H]mannitol]
[6]; % of total injected radioactivity, R2=0.3597
  approximate maximal influx, plateau of one-phase association fit: 39.96±5.55%
[6]; within 45 min of intracisternal injection
  proportion of injected tracer detectable in the brain: ~40%
[7]; intra-striate injection
  reduction of clearance from the brain interstitium in Aqp4-null mice compared to wild type: ~70%

— patent US9901650B2, “Methods for evaluating brain-wide paravascular pathway for waste clearance function and methods for treating neurodegenerative disorders based thereon” (University of Rochester, priority 2013, dated 2018)
